For data set [1] the following is noted: patients with solid tumors; ref Gschwind et al. (2005), Sparano et al. (2009), Di Gion et al. (2011), Scheffler et al. (2011); read-out: I (Cmax of patients with solid tumors); cited from earlier work.
For data set [2], the target named is T1, P-gp (Homo sapiens, UniProt P08183). The following applies: MDR1-MDCK cells, TKI 5 μM.
Experimental: Mock-MDCK and MDR1-MDCK cells were seeded in six-well plates and grown to 80% confluency.
The test system of data set [3] is CYP2J2 and CYP3A4. The following applies: predicted increase in rivaroxaban exposure from CYP2J2 and CYP3A4 inhibition. From the text:
Kinetic constants were included in the mechanistic static model to explore reversible inhibition and the TDI. […] In the present study, this model was designed to explore the contributions of enzyme inhibition in the prediction of DDI risk. The area under the curve ratio (AUC ratio/AUCR) in the presence of a pharmacokinetic DDI was used as the index, as described by Eq. 2.

Data set [4] can be described thus: Rivaroxaban pharmacokinetics in rats, oral administration with or without TKIs. The class given is in vivo, Wistar rats. On the procedure:
(§1) The LC-MS/MS method was used to quantitatively determine rivaroxaban for cell and animal experiments. LC-MS/MS analysis was performed using an API 3200 triple-quadrupole mass spectrometer (Applied Biosystems, Concord, Ontario, Canada) and an Agilent LC system Agilent HP1200 (Agilent Technology Inc. CA, United States). The column was a Hypersil ODS-BP column (150 mm × 2.1 mm, 5 μm; Dalian Elite Analytical Instruments Co. Ltd. China). […] The flow rate of the mobile phase was 0.4 ml/min. The mobile phase contained acetonitrile and water with 0.2% (v/v) formic acid at 65:35 (v/v) for rivaroxaban in cell experiments. The determination of rivaroxaban in the blood was achieved by gradient elution methods with a mobile phase of acetonitrile (A) and pure water with 10 mM ammonium acetate (B).
(§2) To further investigate the DDI risk between rivaroxaban and the TKIs, the pharmacokinetic parameters were measured in Wistar rats (male, 160–200 g). The experiments were reviewed and approved by the Experimental Animal Centre of Dalian Medical University. […] All rats had free access to food and water and were fed adaptively for 7 days. […] Thirty-six rats were divided into six groups randomly. […] After centrifugation, the plasma proteins were precipitated using acetonitrile, followed by vortexing and centrifugation.
(§3) All pharmacokinetic parameters in the present study were analyzed using the Drug and Statistics software (DAS 2.0, Windows). In the bidirectional experiments, the apparent permeability values (Papp), efflux ratio (ER), and net flux ratio were calculated by Eqs. […] The transport of rivaroxaban was assessed to determine apparent Michaelis–Menten constants (Km,app). […] AP is transported from the apical to the basolateral side, and BL is transported from the basolateral to the apical side. Net flux ratiomax is the maximal effect, C is the concentration of rivaroxaban, and h is the Hill coefficient of the sigmoid model.

Data set [5] concerns rivaroxaban metabolism in HLM. Kind of data set: Inhibition of rivaroxaban metabolism in HLM incubation. The note with it: human, pooled human liver microsomes, probe rivaroxaban (concentration chosen from Km, 22.81 μM for HLM), HLM 0.3 mg/mL, main metabolite formation, five independent experiments, read-out: IC50 of TKI inhibition of rivaroxaban metabolism, HLM. The class given is in vitro ADME.
Experimental: The formation of the main metabolite of rivaroxaban in the CYP inhibition assays was quantitatively determined using HPLC. The mobile phase consisted of 60% methanol (A pump) and 40% pure water with 0.2% formic acid (B pump) with isocratic elution.
The inhibitory effect of the TKIs on the metabolism of rivaroxaban in recombined P450 isoforms and HLM incubations was compared by quantifiably detecting the production of the major metabolite using HPLC. The concentrations of HLM, CYP2J2, and CYP3A4 were 0.3, 0.4, and 0.6 mg mL^−1, respectively. […] Briefly, after 5-min preincubation of potential inhibitors with isoforms, NADPH was added to initiate the reaction. The reaction mixture was incubated at 37°C for 60 min, and ice acetonitrile was used for terminating the reaction. The ratio of major metabolite production of rivaroxaban in the TKI incubation group to that obtained in the control group represents the inhibitory activity.
To explore the inhibitory effects of the three TKIs on rivaroxaban metabolism, three concentrations of TKIs (1, 10, and 100 μM) were used to perform the in vitro enzyme incubations. The ratio of the rivaroxaban main metabolite formation in the incubation with the TKIs to that without inhibitors represented the inhibitory activity.
The IC50 values were obtained by nonlinear fitting of the TKI concentration and the remaining enzyme activity.

Details of data set [6]: method as in Chong et al., 2020. The following applies: rats; ref Chong et al., 2020; cited from earlier work.
Data set [7] in a line: Rivaroxaban pharmacokinetics in rats, intravenous administration with or without imatinib. The class given is in vivo. The following applies: male, Wistar, rat, plasma, 0.4 mg/kg, i.v. On the procedure: as §1, §2, §3
The target of data set [8] is T2, BCRP (Homo sapiens, UniProt Q9UNQ0).
T2 sequence (Q9UNQ0 1-655): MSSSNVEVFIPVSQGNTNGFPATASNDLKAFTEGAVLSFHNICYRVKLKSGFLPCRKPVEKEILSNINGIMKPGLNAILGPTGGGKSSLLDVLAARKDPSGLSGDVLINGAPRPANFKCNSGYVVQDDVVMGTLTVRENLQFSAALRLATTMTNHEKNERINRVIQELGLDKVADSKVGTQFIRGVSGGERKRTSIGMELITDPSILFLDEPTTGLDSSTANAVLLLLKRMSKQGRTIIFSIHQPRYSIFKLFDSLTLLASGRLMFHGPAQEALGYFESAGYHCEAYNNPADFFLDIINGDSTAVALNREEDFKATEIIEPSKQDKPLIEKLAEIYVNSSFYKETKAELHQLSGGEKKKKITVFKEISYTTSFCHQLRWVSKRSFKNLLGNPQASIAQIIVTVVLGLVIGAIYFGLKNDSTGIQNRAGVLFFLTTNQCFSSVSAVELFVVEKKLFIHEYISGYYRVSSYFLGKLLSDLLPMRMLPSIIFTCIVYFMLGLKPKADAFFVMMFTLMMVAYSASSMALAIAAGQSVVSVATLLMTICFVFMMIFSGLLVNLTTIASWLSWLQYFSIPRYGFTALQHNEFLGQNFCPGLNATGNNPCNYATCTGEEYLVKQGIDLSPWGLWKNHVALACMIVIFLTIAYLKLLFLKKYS
Kind of data set: Bidirectional transport of rivaroxaban, ABCG2-MDCK vs mock-MDCK. On the procedure: as §1
(§4) Mock-MDCK, MDR1-MDCK, and ABCG2-MDCK cells were seeded in 24-well transwell inserts (0.33 cm^2, 0.4 μm) at a density of 2.5 × 10^5 cells/ml, and cells were allowed to culture for 3–5 days to form cell monolayers. The Millicell-ERS system was used to measure the TEER (Trans Epithelial Electric Resistance) values of the monolayers. […] Briefly, the monolayer was washed gently using 37°C HBSS (pH 7.4) and preincubated with HBSS for 10 min at 37°C. Then, various concentrations of TKIs were added to the HBSS on either the basolateral (total volume of 800 μl) or apical (total volume of 200 μl) side of the monolayers, and the cells in the transwell inserts were allowed to further incubate at 37°C for 2 h. At last, a 100-μl solution was taken from the other side for quantitative analysis by LC-MS/MS.
as §3

Details of data set [9]: method as in Mueck et al., 2013. The note with it: ref Mueck et al., 2013; cited from earlier work.
The target of data set [10] is recombinant human CYP3A4 (Homo sapiens, UniProt P08684). The arrangement: method as in Zhao et al., 2022. The following applies: ref Zhao et al., 2022, cited from earlier work.
Sequence of recombinant human CYP3A4 (P08684 whole entry): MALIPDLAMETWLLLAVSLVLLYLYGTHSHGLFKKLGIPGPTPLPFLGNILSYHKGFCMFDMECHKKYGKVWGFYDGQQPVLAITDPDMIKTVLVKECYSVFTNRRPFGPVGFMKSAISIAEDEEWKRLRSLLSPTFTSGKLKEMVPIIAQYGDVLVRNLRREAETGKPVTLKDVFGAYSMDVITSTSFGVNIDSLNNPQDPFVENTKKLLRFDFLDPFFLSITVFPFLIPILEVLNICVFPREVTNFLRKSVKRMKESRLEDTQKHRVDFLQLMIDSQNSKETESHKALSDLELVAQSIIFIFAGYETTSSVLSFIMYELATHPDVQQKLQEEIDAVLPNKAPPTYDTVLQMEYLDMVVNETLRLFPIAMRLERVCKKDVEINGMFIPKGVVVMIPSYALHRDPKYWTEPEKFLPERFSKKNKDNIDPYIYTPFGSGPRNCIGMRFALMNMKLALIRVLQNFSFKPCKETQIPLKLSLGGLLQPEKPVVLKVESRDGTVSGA
Data set [11] concerns the target T1, P-gp. Kind of data set: Bidirectional transport of rivaroxaban, MDR1-MDCK vs mock-MDCK. On the procedure:
as §1, §4, §3

The test system of data set [12] is pooled human liver microsomes (HLM). The arrangement: method as in Zhao et al., 2022. The note with it: ref Zhao et al., 2022; read-out: Km of rivaroxaban metabolism, HLM; cited from earlier work.
Data set [13] deals with T3, recombinant human CYP2J2 (Homo sapiens, UniProt P51589).
T3 sequence (P51589 1-502): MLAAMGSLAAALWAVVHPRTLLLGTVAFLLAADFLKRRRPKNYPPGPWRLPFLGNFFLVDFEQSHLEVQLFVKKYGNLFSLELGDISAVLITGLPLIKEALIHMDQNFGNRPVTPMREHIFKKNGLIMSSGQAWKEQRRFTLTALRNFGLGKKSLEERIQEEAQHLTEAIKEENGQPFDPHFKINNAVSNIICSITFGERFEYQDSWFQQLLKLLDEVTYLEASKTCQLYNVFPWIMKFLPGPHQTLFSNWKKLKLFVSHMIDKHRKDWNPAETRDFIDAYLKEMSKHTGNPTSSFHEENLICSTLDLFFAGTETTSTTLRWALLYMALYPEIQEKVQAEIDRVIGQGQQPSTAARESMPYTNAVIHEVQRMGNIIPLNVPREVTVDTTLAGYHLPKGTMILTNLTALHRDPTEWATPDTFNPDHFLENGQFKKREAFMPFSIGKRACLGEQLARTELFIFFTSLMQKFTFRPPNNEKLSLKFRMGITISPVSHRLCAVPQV
The arrangement: method as in Zhao et al., 2022. The note with it: ref Zhao et al., 2022, cited from earlier work.

Details of data set [14]: method as in Zheng et al., 2019. The following applies: ref Zheng et al., 2019; cited from earlier work.
Where [15] appears, read: male, Wistar, rat, plasma, po, rivaroxaban 2.1 mg/kg, n = 5.

“Also recorded” adds a separate entry of the source. Like-named read-outs stand apart in the source and are kept apart here.

T1 sequence (P08183 whole entry): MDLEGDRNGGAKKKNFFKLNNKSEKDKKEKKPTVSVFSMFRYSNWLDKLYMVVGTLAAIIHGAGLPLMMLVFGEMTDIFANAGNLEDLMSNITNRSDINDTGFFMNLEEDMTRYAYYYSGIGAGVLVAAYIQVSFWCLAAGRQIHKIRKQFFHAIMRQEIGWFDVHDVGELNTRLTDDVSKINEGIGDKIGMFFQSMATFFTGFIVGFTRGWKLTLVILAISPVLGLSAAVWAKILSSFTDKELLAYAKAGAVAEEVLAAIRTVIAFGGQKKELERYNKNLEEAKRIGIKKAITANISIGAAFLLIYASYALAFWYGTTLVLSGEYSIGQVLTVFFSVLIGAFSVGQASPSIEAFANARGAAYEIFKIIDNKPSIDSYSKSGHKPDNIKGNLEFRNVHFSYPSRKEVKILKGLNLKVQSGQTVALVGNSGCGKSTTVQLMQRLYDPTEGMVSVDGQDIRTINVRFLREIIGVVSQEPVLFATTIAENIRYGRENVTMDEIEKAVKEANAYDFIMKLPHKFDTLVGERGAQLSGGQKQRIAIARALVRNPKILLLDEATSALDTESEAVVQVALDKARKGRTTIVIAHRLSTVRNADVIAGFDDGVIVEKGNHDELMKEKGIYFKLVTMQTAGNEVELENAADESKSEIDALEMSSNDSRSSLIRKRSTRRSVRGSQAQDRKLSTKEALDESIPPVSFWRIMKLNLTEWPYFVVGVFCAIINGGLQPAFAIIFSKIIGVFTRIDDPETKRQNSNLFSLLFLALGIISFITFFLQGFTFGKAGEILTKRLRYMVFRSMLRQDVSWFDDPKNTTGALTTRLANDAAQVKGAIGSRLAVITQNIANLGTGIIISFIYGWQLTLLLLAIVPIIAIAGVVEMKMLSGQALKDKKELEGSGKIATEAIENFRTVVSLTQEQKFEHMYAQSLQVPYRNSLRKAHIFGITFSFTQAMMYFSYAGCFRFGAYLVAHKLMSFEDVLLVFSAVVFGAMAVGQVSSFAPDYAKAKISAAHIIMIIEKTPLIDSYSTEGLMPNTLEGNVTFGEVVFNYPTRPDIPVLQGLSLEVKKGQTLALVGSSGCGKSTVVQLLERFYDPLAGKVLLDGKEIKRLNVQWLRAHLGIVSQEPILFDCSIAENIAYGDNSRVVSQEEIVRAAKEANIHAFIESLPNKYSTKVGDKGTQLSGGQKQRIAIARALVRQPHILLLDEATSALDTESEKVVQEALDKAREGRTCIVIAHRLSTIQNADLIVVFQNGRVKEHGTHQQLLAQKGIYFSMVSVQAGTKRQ

Regarding `COc1cc2ncnc(Nc3ccc(F)c(Cl)c3)c2cc1OCCCN1CCOCC1` [Gefitinib], in [1], the Cmax is 190 to 356 nM. Also, the “intracellular fluorescence intensity of rhodamine 123 (fluorescence imaging)” value in data set [2] was “slight increase”. In addition, the results for the “AUC increase (%)” value in [3] and in data set [3] (listed as gefitinib) were 6–11% and “not to cause a significant change”, respectively. For the same compound, in data set [4] (p.o.), the “effect on rivaroxaban exposure / pharmacokinetics in vivo” value is “almost did not affect; also recorded: did not show obvious changes”.

As to `CCN(CC)CCNC(=O)c1c(C)[nH]c(/C=C2\C(=O)Nc3ccc(F)cc32)c1C` [Sunitinib], in data set [1], the peak concentration (Cmax) was 63 to 69.5 nM. Further, the “AUC increase (%)” value is on record as 2% in data set [3] and “not to cause a significant change” in [3] (listed as sunitinib). The IC50 at 60 min in data set [5] was 84.2 ± 7.34 µM.

Turning to `CCCSc1nc(N[C@@H]2C[C@H]2c2ccc(F)c(F)c2)c2nnn([C@@H]3C[C@H](OCCO)[C@@H](O)[C@H]3O)c2n1` [ticagrelor], in data set [6], the “increase of the AUC of rivaroxaban” value is “two folds”.

On to `O=C(NC[C@H]1CN(c2ccc(N3CCOCC3=O)cc2)C(=O)O1)c1ccc(Cl)s1` [Rivaroxaban], for which the results for the AUC(0-t) in data set [7] (n = 5) and in data set [4] (setting [15]) were 4650 ± 446 ng·h/mL and 1550 ± 268 ng·h/mL, respectively. Also, the highest concentration (Cmax) came out at 3940 ± 780 ng/mL in [7] (n = 5) and 130 ± 22.7 ng/mL in data set [4] (setting [15]). The clearance in data set [7] (n = 5, read-out: CL of rivaroxaban (converted)) was 1.38 mL/min/kg. In data set [7] (n = 5, read-out: t1/2 of rivaroxaban (converted)), the half-life was 2.44 ± 0.757 h. The “Net flux ratio max, BCRP” value in data set [8] (ABCG2-MDCK cells) turned out to be 4.868 fold. Further, the Km at 2 h worked out at 3.46 µM in [8] (human, pH 7.4) and 8.42 µM in data set [11] (human, MDCK, pH 7.4). In data set [8] (substrate identification), the “net flux ratio, transportation mediated by BCRP” value is on record as “more than 2 folds”. The “dose eliminated via hydrolysis of the amide bonds” value in data set [9] is recorded as “approximately 14%”. For the same compound, the “fraction of rivaroxaban metabolized by CYP3A4” value in data set [10] (input of static model) is on record as 0.025. Moreover, the Michaelis constant (Km) in data set [10] (read-out: Km of rivaroxaban metabolism, CYP3A4) was 47 µM; in data set [12], 22.8 µM; in data set [13] (read-out: Km of rivaroxaban metabolism, CYP2J2) it was 19.4 µM. Further, in data set [11] (MDR1-MDCK cells), the “Net flux ratio max, P-gp” value is recorded as 10.300 fold. In [11] (substrate identification), the “net flux ratio, transportation mediated by P-gp” value is “more than 2 folds”. In addition, the Tmax in data set [4] (setting [15]) is 4 h. In data set [13] (input of static model), the “fraction of rivaroxaban metabolized by CYP2J2” value was 0.95. Further, the “catalytic efficiency of CYP2J2 relative to CYP3A4” value in data set [13] is listed as “approximately 39 fold”.

Compound `Cc1ccc(NC(=O)c2ccc(CN3CCN(C)CC3)cc2)cc1Nc1nccc(-c2cccnc2)n1` [Imatinib] returned an inhibition at 2 h, 5 µM in data set [8] (human, pH 7.4) of over 50%. In addition, in [1], the Cmax was 4170 to 9280 nM. For the same compound, the inhibition at 2 h in data set [11] (human, pH 7.4) is about 20%. For the same compound, the “intracellular fluorescence intensity of rhodamine 123 (fluorescence imaging)” value in [2] is listed as “significantly increased”. Further, the IC50 at 60 min in data set [5] stood at 1.7 ± 0.119 µM.

Take `CCOC(=O)[C@H](CCc1ccccc1)N[C@@H](C)C(=O)N1CCC[C@H]1C(=O)O` [enalapril]: in data set [14], the “increase of the AUC value of rivaroxaban” value is 20% and the “increase of the Cmax value of rivaroxaban” value is recorded as 20%.

The values are drawn from PMC9441481, “Risk assessment and molecular mechanism study of drug-drug interactions between rivaroxaban and tyrosine kinase inhibitors mediated by CYP2J2/3A4 and BCRP/P-gp” (Frontiers in Pharmacology, 2022).
